# In US20020136711A1, “Compositions used in human treatment” (priority 1998, published 2002):
# Assays:
# [1] = clinical trials: absorbability of chelated potassium; assay type: in vivo, human; conditions: potassium bonded or chelated with an amino acid or a simple sugar
# From the text: A preferred aspect of the present invention is the administering of potassium when bonded or chelated with an amino acid or a simple sugar.
# skin flushing or rash = conditions: larger doses of niacin
# From the text: Typically, the form of niacin used may produce a flushing, redness or rash to the skin when consumed in large doses. […] Inositol is molecularly bonded to niacin, and in conjunction therewith serves to slow the absorption of nicotinic acid.
Compound,absorbability and assimilation into the bloodstream [1],"side-effects (flushing, redness or rash to the skin) at larger doses (skin flushing or rash)"
O=C([O-])[C@H](O)[C@@H](O)[C@H](O)[C@H](O)CO.[K+] [potassium gluconate],better absorbability and assimilation into the bloodstream,
O=C(O[C@H]1[C@H](OC(=O)c2cccnc2)[C@@H](OC(=O)c2cccnc2)[C@H](OC(=O)c2cccnc2)[C@@H](OC(=O)c2cccnc2)[C@H]1OC(=O)c1cccnc1)c1cccnc1 [niacin inositol hexanicotinate],,no side-effects
